How the values were obtained:
Aβ42 [1] = assay: Screening for γ-secretase-modulating activity, Method 1: Aβ42 sandwich ELISA on SKNBE2 cell media; type: cell-based; details: SKNBE2 cells carrying APP 695 wild type
Procedure, shortened: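 SKNBE2 cells expressing wild-type APP695 were treated with compound for 18 h in Ultraculture/1% glutamine. Secreted Aβ42 was quantified by sandwich ELISA (C-terminal capture, biotinylated 3D6, TMB, 450 nm), with WST-1 used as a toxicity check. IC50 was derived from 4-parameter fits of % inhibition or % of untreated control.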

Aβtotal [2] = assay: Screening for γ-secretase-modulating activity, Method 1: Aβtotal sandwich ELISA on SKNBE2 cell media; type: cell-based; details: SKNBE2 cells carrying APP 695 wild type
Procedure, shortened: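 SKNBE2 cells expressing wild-type APP 695 were treated with compound for 18 hours. Aβtotal in the medium was measured by sandwich ELISA (6E10 capture, biotinylated 4G8 detection, fluorogenic peroxidase read-out). IC50 came from a 4-parameter fit of % inhibition with top/bottom fixed at 100/0 and Hill slope 1, or as averaged IC50 from % of untreated control.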

Aβ42 [3] = assay: In vivo efficacy Method 1: brain soluble Aβ42 by ELISA; parameters: species or system mouse; details: Table 4a, single oral dose, overnight fasted animals, sacrificed after 4 h, soluble fraction of brain homogenates
Description: (§1) To determine whether acute administration of an Aβ42 lowering agent would reduce Aβ42 levels in vivo, non-transgenic rodents, e.g. mice or rats were used. Alternatively, two to three month old Tg2576 mice expressing APP695 containing the “Swedish” variant can be used or a transgenic mouse model developed by Dr. Fred Van Leuven (K.U. Leuven, Belgium) and co-workers, with neuron-specific expression of a clinical mutant of the human amyloid precursor protein [V717I] […] Young transgenic mice have high levels of Aβ in the brain but no detectable Aβ deposition. At approximately 6-8 months of age, the transgenic mice start to display spontaneous, progressive accumulation of β-amyloid (Aβ) in the brain, eventually resulting in amyloid plaques within the subiculum, hippocampus and cortex. Animals treated with the Aβ42 lowering agent were examined and compared to those untreated or treated with vehicle and brain levels of soluble Aβ42 and total Aβ would be quantitated by standard techniques, for example, using ELISA.
(§2) A typical protocol for measuring Aβ42 lowering in vivo is shown but it is only one of many variations that could be used to optimize the levels of detectable Aβ. For example, Aβ42 lowering compounds were formulated in 20% of Captisol® (a sulfobutyl ether of β-cyclodextrin) in water or 20% hydroxypropyl β cyclodextrin. The Aβ42 lowering agents were administered as a single oral dose or by any acceptable route of administration to overnight fasted animals. After 4 h, the animals were sacrificed and Aβ42 levels were analysed.
(§3) Blood was collected by decapitation and exsanguinations in EDTA-treated collection tubes. Blood was centrifuged at 1900 g for 10 minutes (min) at 4° C. and the plasma recovered and flash frozen for later analysis. The brain was removed from the cranium and hindbrain. The cerebellum was removed and the left and right hemisphere were separated. The left hemisphere was stored at −18° C. for quantitative analysis of test compound levels. The right hemisphere was rinsed with phosphate-buffered saline (PBS) buffer and immediately frozen on dry ice and stored at −80° C. until homogenization for biochemical assays.
(§4) All samples were sonicated for 30 seconds on ice at 20% power output (pulse mode). Homogenates were centrifuged at 221.300×g for 50 min. The resulting high speed supernatants were then transferred to fresh tubes and were optionally further purified before the next step. A portion of the supernatant was neutralized with 10% 0.5 M Tris-HCl and this was used to quantify Aβtotal.
(§5) The obtained supernatants were purified with Water Oasis HLB reverse phase columns (Waters Corp., Milford, Mass.) to remove non-specific immunoreactive material from the brain lysates prior subsequent Aβ detection. Using a vacuum manifold, all solutions were passed through the columns at a rate of approximately 1 ml per min, so the vacuum pressure was adjusted accordingly throughout the procedure. Columns were preconditioned with 1 ml of 100% MeOH, before equilibration with 1 ml of H2O, Non-neutralized brain lysates were loaded onto the columns. The loaded samples were then washed twice with the first wash performed with 1 ml of 5% MeOH, and the second wash with 1 ml of 30% MeOH. Finally, the Aβ was eluted from the columns and into 100×30 mm glass tubes, with a solution of 90% MeOH with 2% NH4OH. The eluate was then transferred into 1.5 ml tubes and concentrated in a speed-vac concentrator on high heat for about 1.5-2 h at 70° C. The concentrated Aβ was then resuspended in UltraCULTURE General Purpose Serum-Free Medium (Cambrex Corp., Walkersville, Md.) plus Protease Inhibitors added.
To quantify the amount of Aβ42 in the soluble fraction of the brain homogenates, commercially available Enzyme-Linked-Immunosorbent-Assay (ELISA) kits were used (e.g. Innotest® β-Amyloid(1-42), Innogenetics N.V., Ghent, Belgium). The Aβ42 ELISA was performed using the plate provided with the kit only.

Aβtotal [4] = assay: In vivo efficacy Method 1: brain soluble Aβtotal by ELISA; parameters: species or system mouse; details: Table 4a, single oral dose, overnight fasted animals, sacrificed after 4 h, soluble fraction of brain homogenates
Description: as §1, §2, §3, §4
as §5, with “added. […]” for “added.”

Aβ42 [5] = assay: Screening for γ-secretase-modulating activity, Method 2: Aβ42 Alphalisa on SKNBE2 cell supernatant; type: cell-based; details: Method 2, Table 3c, SKNBE2 cells carrying APP 695 wild type, overnight incubation
Procedure, shortened: (§6)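 SKNBE2 cells expressing wild-type APP695, plated at 10^4 cells/well with compound at several concentrations and incubated overnight at 37° C. Aβ42 (C-terminal capture, N-terminal biotinylated detection) and Aβtotal (N-terminal/4G8 pair) measured in supernatant by AlphaLISA. IC50 from 4-parameter fit of percent of compound-free control.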

Aβtotal [6] = assay: Screening for γ-secretase-modulating activity, Method 2: Aβtotal Alphalisa on SKNBE2 cell supernatant; type: cell-based; details: Method 2, Table 3c, SKNBE2 cells carrying APP 695 wild type, overnight incubation
Procedure, shortened: as §6

Aβ42 [7] = assay: In vivo efficacy Method 2: brain soluble Aβ42 by ELISA; parameters: species or system mouse; details: Table 4b, single oral dose, overnight fasted non-transgenic animals, sacrificed after 4 h, soluble fraction of brain homogenates
Description: (§7) To determine whether acute administration of an Aβ42 lowering agent would reduce Aβ42 levels in vivo, non-transgenic rodents, e.g. mice or rats were used. Animals treated with the Aβ42 lowering agent were examined and compared to those untreated or treated with vehicle and brain levels of soluble Aβ42 and total Aβ were quantitated by standard techniques, for example, using ELISA. Treatment periods varied from hours (h) to days and were adjusted based on the results of the Aβ42 lowering once a time course of onset of effect could be established.
as §2, §3
(§8) Mouse brains from non-transgenic animals were resuspended in 8 volumes of 0.4% DEA (diethylamine)/50 mM NaCl containing protease inhibitors (Roche-11873580001 or 04693159001) per gram of tissue, e.g. for 0.158 g brain, add 1.264 ml of 0.4% DEA. All samples were homogenized in the FastPrep-24 system (MP Biomedicals) using lysing matrix D (MPBio #6913-100) at 6 m/s for 20 seconds. Homogenates were centrifuged at 221.300×g for 50 min. The resulting high speed supernatants were then transferred to fresh eppendorf tubes. Nine parts of supernatant were neutralized with 1 part 0.5 M Tris-HCl pH 6.8 and used to quantify Aβtotal and Aβ42.
(§9) To quantify the amount of Aβtotal and Aβ42 in the soluble fraction of the brain homogenates, Enzyme-Linked-Immunosorbent-Assays were used . Briefly, the standards (a dilution of synthetic Aβ1-40 and Aβ1-42, Bachem) were prepared in 1.5 ml Eppendorf tube in Ultraculture, with final concentrations ranging from 10000 to 0.3 pg/ml. The samples and standards were co-incubated with HRPO-labelled N-terminal antibody for Aβ42 detection and with the biotinylated mid-domain antibody 4G8 for Aβtotal detection. 50 μl of conjugate/sample or conjugate/standards mixtures were then added to the antibody-coated plate (the capture antibodies selectively recognize the C-terminal end of Aβ42, antibody JRF/cAβ42/26, for Aβ42 detection and the N-terminus of Aβ, antibody JRF/rAβ/2, for Aβtotal detection). The plate was allowed to incubate overnight at 4° C. in order to allow formation of the antibody-amyloid complex. Following this incubation and subsequent wash steps the ELISA for Aβ42 quantification was finished by addition of Quanta Blu fluorogenic peroxidase substrate according to the manufacturer's instructions (Pierce Corp., Rockford, Ill.). A reading was performed after 10 to 15 min (excitation 320/emission 420).
In this model at least 20% Aβ42 lowering compared to untreated animals would be advantageous.

Aβtotal [8] = assay: In vivo efficacy Method 2: brain soluble Aβtotal by ELISA; parameters: species or system mouse; details: Table 4b, single oral dose, overnight fasted non-transgenic animals, sacrificed after 4 h, soluble fraction of brain homogenates
Description: as §7, §2, §3, §8, §9
For Aβtotal detection, a Streptavidine-Peroxidase-Conjugate was added, followed 60 min later by an additional wash step and addition of Quanta Blu fluorogenic peroxidase substrate according to the manufacturer's instructions (Pierce Corp., Rockford, Ill.). A reading was performed after 10 to 15 min (excitation 320 nm/emission 420 nm).

[9] = Table 3a, 18 hours, XLfit, top/bottom fixed to 100 and 0, hill slope 1
[10] = Table 3b, non-linear regression of % of control, averaged IC50 values

IC50 (Aβ42 [1]; [9]) [nM] | IC50 (Aβ42 [1]; [10]) [nM] | IC50 (Aβtotal [2]; [9]) [nM] | IC50 (Aβtotal [2]; [10]) [nM] | IC50 (Aβ42 [5]; Homo sapiens) [nM] | IC50 (Aβtotal [6]; Homo sapiens) [nM] | IC50 (Aβ42 [5]) [nM] | IC50 (Aβtotal [6]) [nM] | SMILES | Aβ42 (% Ctrl) _Mean (Aβ42 [3]) [% Ctrl] | Aβtotal (% Ctrl) _Mean (Aβtotal [4]) [% Ctrl] | Aβ42 (% Ctrl) _Mean (Aβ42 [7]) [% Ctrl] | Aβtotal (% Ctrl) _Mean (Aβtotal [8]) [% Ctrl]
– | – | – | – | – | – | 5 | 8130 | COc1cc(-c2nc3c(Nc4ccc(-n5cnc(C)c5)c(OC)n4)cccc3n2C(C)C)ccc1Cl [Compound 131] | 51 | 84 | – | –
– | – | – | – | – | – | 5 | > 10000 | COc1cc(Nc2ccc(-n3cnc(C)c3)c(OC)n2)c2nc(-c3ccc(F)cc3)n(C)c2c1 [Compound 160] | – | – | 84 | 78
– | – | – | – | – | – | 6 | 3720 | COc1nc(Nc2cccc3c2nc(-c2cc(F)cc(F)c2)n3C)ccc1-n1cnc(C)c1.Cl.Cl.O [Compound 165] | – | – | 44 | 85
– | – | – | – | – | – | 7 | 5250 | COc1nc(Nc2cccc3c2nc(-c2cccc(C(F)(F)F)c2)n3C)ccc1-n1cnc(C)c1 [Compound 167] | – | – | 46 | 84
– | – | – | – | 13 | > 10000 | – | – | COc1cc(-c2nc3c(Nc4ccc(-n5cnc(C)c5)c(OC)n4)cccc3n2C)ccc1F [Compound 184] | – | – | 31 | 88
– | – | – | – | 36 | 7240 | – | – | COc1nc(Nc2cccc3c2nc(-c2cc(C(F)(F)F)ccc2F)n3C)ccc1-n1cnc(C)c1 [Compound 187] | – | – | 75 | 96

Second part, the compound before the results:

SMILES | IC50 (Aβ42 [1]; [9]) [nM] | IC50 (Aβ42 [1]; [10]) [nM] | IC50 (Aβtotal [2]; [9]) [nM] | IC50 (Aβtotal [2]; [10]) [nM] | IC50 (Aβ42 [5]; Homo sapiens) [nM] | IC50 (Aβtotal [6]; Homo sapiens) [nM] | IC50 (Aβ42 [5]) [nM] | IC50 (Aβtotal [6]) [nM] | Aβ42 (% Ctrl) _Mean (Aβ42 [3]) [% Ctrl] | Aβtotal (% Ctrl) _Mean (Aβtotal [4]) [% Ctrl] | Aβ42 (% Ctrl) _Mean (Aβ42 [7]) [% Ctrl] | Aβtotal (% Ctrl) _Mean (Aβtotal [8]) [% Ctrl]
Cc1ncnn1-c1ccc(Nc2nccc3c2nc(-c2ccc(F)cc2)n3C)cc1F [Compound 97] | 435 | 398 | > 3000 | > 10000 | – | – | – | – | 96 | 96 | – | –
Cc1cn(-c2ccc(Nc3nccc4c3nc(-c3ccc(F)cc3F)n4C)cc2F)cn1 [Compound 104] | 50 | 44 | > 3000 | > 3000 | – | – | – | – | 65 | 110 | – | –
COc1nc(Nc2cc(F)cc3c2nc(-c2ccc(F)cc2)n3C(C)C)ccc1-n1cnc(C)c1 [Compound 106] | – | – | – | – | 4 | 6170 | – | – | 87 | 104 | – | –
COc1cc(-c2nc3c(Nc4ccc(-n5cnc(C)c5)c(F)c4)nc(C)cc3n2C)ccc1Cl [Compound 136] | – | – | – | – | – | – | 9 | > 10000 | – | – | 77 | 104
Cc1cn(-c2ccc(Nc3nc(C)cc4c3nc(-c3cccc(N(C)C)c3)n4C)cc2F)cn1 [Compound 142] | – | – | – | – | – | – | 15 | 9330 | – | – | 73 | 98
COc1nc(Nc2cccc3c2nc(-c2ccc(F)cc2)n3C(C)C)ccc1-n1cnc(C)n1 [Compound 162] | – | – | – | – | – | – | 5 | 5620 | – | – | 79 | 97
COc1nc(Nc2cccc3c2nc(-c2cccc(NC(C)=O)c2)n3C)ccc1-n1cnc(C)c1 [Compound 174] | – | – | – | – | 38 | 9550 | – | – | – | – | 90 | 104
COc1cc(OC)cc(-c2nc3c(Nc4ccc(-n5cnc(C)c5)c(OC)n4)cccc3n2C)c1.Cl.Cl.O [Compound 186] | – | – | – | – | – | – | 12 | 8320 | – | – | 38 | 88
COc1nc(Nc2cccc3c2nc(-c2cccc(OC(F)(F)F)c2)n3C)ccc1-n1cnc(C)c1 [Compound 189] | – | – | – | – | – | – | 17 | 8320 | – | – | 48 | 95

Source: patent publication US8772504B2, “Substituted benzoxazole, benzimidazole, oxazolopyridine and imidazopyridine derivatives as gamma secretase modulators” (Janssen Pharmaceuticals, Inc., priority 2009, dated 2014)
